Converted amounts (≈) assume the structure as drawn.
What was measured:
Assay in all cases: Anti-microbial activity test in vitro (agar dilution MIC)
CRSA C6043 = format: cell-based, Staphylococcus aureus; conditions: CRSA C6043; Agar Dilution method, Mueller Hinton Agar, 18 hours at 37° C.
Method in brief: (§1)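 Visual endpoint: minimum inhibitory concentration (μg/ml) by agar dilution, Mueller Hinton medium, twofold steps, 18 h at 37 °C.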

CRSA C1062 = format: cell-based, Staphylococcus aureus; conditions: CRSA C1062; Agar Dilution method, Mueller Hinton Agar, 18 hours at 37° C.
Method in brief: as §1

MRSA C2207 = format: cell-based, Staphylococcus aureus; conditions: MRSA C2207; Agar Dilution method, Mueller Hinton Agar, 18 hours at 37° C.
Method in brief: as §1

MRSA C6068 = format: cell-based, Staphylococcus aureus; conditions: MRSA C6068; Agar Dilution method, Mueller Hinton Agar, 18 hours at 37° C.
Method in brief: as §1

MSSA C2214 = format: cell-based, Staphylococcus aureus; conditions: MSSA C2214; Agar Dilution method, Mueller Hinton Agar, 18 hours at 37° C.
Method in brief: as §1

MRSA C5100 = format: cell-based, Staphylococcus aureus; conditions: MRSA C5100; Agar Dilution method, Mueller Hinton Agar, 18 hours at 37° C.
Method in brief: as §1

MSSA C7142 = format: cell-based, Staphylococcus aureus; conditions: MSSA C7142; Agar Dilution method, Mueller Hinton Agar, 18 hours at 37° C.
Method in brief: as §1

VRE C6488 = format: cell-based, Enterococcus faecium; conditions: VRE C6488; Agar Dilution method, Mueller Hinton Agar, 18 hours at 37° C.
Method in brief: as §1

VRE C6487 = format: cell-based, Enterococcus faecium; conditions: VRE C6487; Agar Dilution method, Mueller Hinton Agar, 18 hours at 37° C.
Method in brief: as §1

E. faecium C2252 = format: cell-based; conditions: E. faecium C2252; Agar Dilution method, Mueller Hinton Agar, 18 hours at 37° C.
Method in brief: as §1

S. pyogenes C6003 = format: cell-based; conditions: S. pyogenes C6003; Agar Dilution method, Mueller Hinton Agar, 18 hours at 37° C.
Method in brief: as §1

S. pyogenes ATCC8668 = format: cell-based; conditions: S. pyogenes ATCC8668; Agar Dilution method, Mueller Hinton Agar, 18 hours at 37° C.
Method in brief: as §1

E. faecalis ATCC29212 = format: cell-based; conditions: E. faecalis ATCC29212; Agar Dilution method, Mueller Hinton Agar, 18 hours at 37° C.
Method in brief: as §1

E. faecium C6301 = format: cell-based; conditions: E. faecium C6301; Agar Dilution method, Mueller Hinton Agar, 18 hours at 37° C.
Method in brief: as §1

S. epidermidis C2235 = format: cell-based; conditions: S. epidermidis C2235; Agar Dilution method, Mueller Hinton Agar, 18 hours at 37° C.
Method in brief: as §1

S. epidermidis C2230 = format: cell-based; conditions: S. epidermidis C2230; Agar Dilution method, Mueller Hinton Agar, 18 hours at 37° C.
Method in brief: as §1

S. aureus ATCC 29213 = format: cell-based; conditions: Agar Dilution method, Mueller Hinton Agar, 18 hours at 37° C.
Method in brief: as §1

E. faecalis C6288 = format: cell-based; conditions: E. faecalis C6288; Agar Dilution method, Mueller Hinton Agar, 18 hours at 37° C.
Method in brief: as §1

E. faecalis C6291 = format: cell-based; conditions: E. faecalis C6291; Agar Dilution method, Mueller Hinton Agar, 18 hours at 37° C.
Method in brief: as §1

S. epidermidis ATCC12228 = format: cell-based; conditions: S. epidermidis ATCC12228; Agar Dilution method, Mueller Hinton Agar, 18 hours at 37° C.
Method in brief: as §1

S. pyogenes C6012 = format: cell-based; conditions: S. pyogenes C6012; Agar Dilution method, Mueller Hinton Agar, 18 hours at 37° C.
Method in brief: as §1

Compound | Minimum inhibition concentration (MIC) (CRSA C6043) [µg/mL] | Minimum inhibition concentration (MIC) (CRSA C1062) [µg/mL] | Minimum inhibition concentration (MIC) (MRSA C2207) [µg/mL] | Minimum inhibition concentration (MIC) (MRSA C6068) [µg/mL] | Minimum inhibition concentration (MIC) (MSSA C2214) [µg/mL] | Minimum inhibition concentration (MIC) (MRSA C5100) [µg/mL] | Minimum inhibition concentration (MIC) (MSSA C7142) [µg/mL] | Minimum inhibition concentration (MIC) (VRE C6488) [µg/mL] | Minimum inhibition concentration (MIC) (VRE C6487) [µg/mL] | Minimum inhibition concentration (MIC) (E. faecium C2252) [µg/mL] | Minimum inhibition concentration (MIC) (S. pyogenes C6003) [µg/mL] | Minimum inhibition concentration (MIC) (S. pyogenes ATCC8668) [µg/mL] | Minimum inhibition concentration (MIC) (E. faecalis ATCC29212) [µg/mL] | Minimum inhibition concentration (MIC) (E. faecium C6301) [µg/mL] | Minimum inhibition concentration (MIC) (S. epidermidis C2235) [µg/mL] | Minimum inhibition concentration (MIC) (S. epidermidis C2230) [µg/mL] | Minimum inhibition concentration (MIC) (S. aureus ATCC 29213) [µg/mL] | Minimum inhibition concentration (MIC) (E. faecalis C6288) [µg/mL] | Minimum inhibition concentration (MIC) (E. faecalis C6291) [µg/mL] | Minimum inhibition concentration (MIC) (S. epidermidis ATCC12228) [µg/mL] | also measured
CC(=O)NC[C@H]1CN(c2ccc(N3CCC(=CC(C)OC(=O)CCl)CC3)c(F)c2)C(=O)O1 (stereo partly drawn) [Compound 24, N-[[(5S)-3-[3-fluoro-4-(4-(2-(chloroacetoxy)propylidene)-piperidinyl)-phenyl]-2-oxo-5-oxazolidinyl]methyl]acetamide] | 16 (≈ 34.2 µM) | 8 (≈ 17.1 µM) | 16 (≈ 34.2 µM) | 8 (≈ 17.1 µM) | 16 (≈ 34.2 µM) | 16 (≈ 34.2 µM) | 16 (≈ 34.2 µM) | 4 (≈ 8.55 µM) | 4 (≈ 8.55 µM) | 16 (≈ 34.2 µM) | 8 (≈ 17.1 µM) | 2 (≈ 4.27 µM) | 8 (≈ 17.1 µM) | 8 (≈ 17.1 µM) | 8 (≈ 17.1 µM) | 8 (≈ 17.1 µM) | 16 (≈ 34.2 µM) | 16 (≈ 34.2 µM) | 16 (≈ 34.2 µM) | 2 (≈ 4.27 µM) | Minimum inhibition concentration (MIC) (S. pyogenes C6012): 2 µg/mL (≈ 4.27 µM)
CC(=O)NC[C@H]1CN(c2ccc(N3CCC(=CC(C)OC(=O)C(Cl)Cl)CC3)c(F)c2)C(=O)O1 (stereo partly drawn) [Compound 25, N-[[(5S)-3-[3-fluoro-4-(4-(2-(dichloroacetoxy)propylidene)-piperidinyl)-phenyl]-2-oxo-5-oxazolidinyl]methyl]acetamide] | 16 (≈ 31.8 µM) | 16 (≈ 31.8 µM) | 16 (≈ 31.8 µM) | 8 (≈ 15.9 µM) | 16 (≈ 31.8 µM) | 8 (≈ 15.9 µM) | 16 (≈ 31.8 µM) | 4 (≈ 7.96 µM) | 4 (≈ 7.96 µM) | 8 (≈ 15.9 µM) | 8 (≈ 15.9 µM) | 2 (≈ 3.98 µM) | 8 (≈ 15.9 µM) | 8 (≈ 15.9 µM) | 8 (≈ 15.9 µM) | 8 (≈ 15.9 µM) | 16 (≈ 31.8 µM) | 8 (≈ 15.9 µM) | 8 (≈ 15.9 µM) | 2 (≈ 3.98 µM) | Minimum inhibition concentration (MIC) (S. pyogenes C6012): 2 µg/mL (≈ 3.98 µM)
CC(=S)NC[C@H]1CN(c2ccc(N3CCC(=CC#N)CC3)c(F)c2)C(=O)O1 [Compound 26, N-[[(5S)-3-[3-fluoro-4-(4-(cyanomethylidene)piperidinyl)-phenyl]-2-oxo-5-oxazolidinyl]methyl]thioacetamide] | 2 (≈ 5.15 µM) | 2 (≈ 5.15 µM) | 2 (≈ 5.15 µM) | 2 (≈ 5.15 µM) | 2 (≈ 5.15 µM) | 1 (≈ 2.57 µM) | 2 (≈ 5.15 µM) | 0.5 (≈ 1.29 µM) | 0.5 (≈ 1.29 µM) | 1 (≈ 2.57 µM) | 0.25 (≈ 0.644 µM) | 0.5 (≈ 1.29 µM) | 2 (≈ 5.15 µM) | 1 (≈ 2.57 µM) | 0.5 (≈ 1.29 µM) | 1 (≈ 2.57 µM) | 2 (≈ 5.15 µM) | 1 (≈ 2.57 µM) | 1 (≈ 2.57 µM) | 0.5 (≈ 1.29 µM) | Minimum inhibition concentration (MIC) (S. pyogenes C6012): 0.25 µg/mL (≈ 0.644 µM)
N-[[(5S)-3-[3-fluoro-4-(4-dicyanomethylidenepiperidinyl) phenyl]-2-oxo-5-oxazolidinyl]methyl]acetamide [Compound 6] | 4 | 4 | 4 | 2 | 4 | 4 | 4 | 2 | 4 | 4 | 4 | 1 | 4 | 2 | 2 | 2 | 2 | 4 | 4 | 1 | Minimum inhibition concentration (MIC) (S. pyogenes C6012): 1 µg/mL

Source: patent US20040087633A1, “Methylidene oxazolidinone compound and preparation method thereof” (Korea Institute of Science and Technology, priority 2002, published 2004)
